The target of series [1] is T1, HisACAT1/FLAG (recombinant hACAT1) (Homo sapiens, UniProt P35610, M1L).
T1 construct: hACAT1 contains 550 amino acids; made in house
T1 sequence (P35610 1-550 M1L): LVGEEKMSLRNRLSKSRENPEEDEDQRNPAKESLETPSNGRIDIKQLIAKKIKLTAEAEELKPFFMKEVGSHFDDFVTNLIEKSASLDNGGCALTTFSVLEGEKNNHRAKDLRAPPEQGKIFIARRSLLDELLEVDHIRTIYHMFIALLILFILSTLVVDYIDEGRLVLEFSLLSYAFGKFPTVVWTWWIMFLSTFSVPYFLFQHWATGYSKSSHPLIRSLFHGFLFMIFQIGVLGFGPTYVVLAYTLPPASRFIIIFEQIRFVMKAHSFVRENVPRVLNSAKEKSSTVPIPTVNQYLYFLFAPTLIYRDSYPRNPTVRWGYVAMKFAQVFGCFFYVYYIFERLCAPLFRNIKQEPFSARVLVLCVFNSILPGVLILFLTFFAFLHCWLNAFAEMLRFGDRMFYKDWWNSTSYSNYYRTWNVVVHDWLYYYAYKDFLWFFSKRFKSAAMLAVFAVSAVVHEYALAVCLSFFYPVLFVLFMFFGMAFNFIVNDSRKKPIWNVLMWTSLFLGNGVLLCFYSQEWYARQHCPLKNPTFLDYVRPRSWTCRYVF
The experiment in a line: Steady-state enzyme kinetics with fatty acyl-CoA as variable substrate, purified HisACAT1/FLAG. In kind it is biochemical. Conditions: constant, saturating cholesterol in CHAPS/PC mixed micelles. The procedure: (§1) To monitor enzyme activity during enzyme purification, the enzyme solubilized in the detergent CHAPS was assayed in preformed taurocholate/cholesterol/phosphatidylcholine (PC) mixed micelles as described previously (Chang, C. C. et al. 1998. J. Biol. Chem. 273:35132-35141), with a final concentration of taurocholate at 9.3 mM, PC at 11.2 mM, and cholesterol at 1.6 mM. The amount of mixed micelle solution was used to dilute the detergent presented in the enzyme preparation, so the final CHAPS/PC molar ratio was less than 0.4. The fatty acyl-CoA substrate saturation curves and cholesterol substrate saturation curves were performed under the same conditions as described previously (Chang, C. C. et al. 1998. supra).
(§2) Prior to conducting binding experiments, steady-state enzyme kinetic experiments were conducted using purified HisACAT1/FLAG as the enzyme source and either oleoyl- (18:1) CoA or stearoyl- (18:0) CoA as the variable substrate, at a constant, saturating level of cholesterol in the CHAPS/PC mixed micelles.

Series [2] deals with T1, HisACAT1/FLAG (recombinant hACAT1). Kind of series: Ligand binding by change in intrinsic (tryptophan) fluorescence of HisACAT1/FLAG. The text has this: Fluorescence measurements were generated using an ISS PC1 photocounting fluorescence spectrophotometer (model 90095). This instrument has continuously reproducible slits ranging from 0.4 to 32 nm band-pass. The excitation slit width was set at 2 nm. The wavelength for excitation was set at 295 nm in order to minimize the contribution of tyrosine residues to the fluorescence. Purified HisACAT1/FLAG was concentrated using 30K AMICON centrifugal filters such that the final concentration of the protein was 100-200 ng/μL (1.5-3 μM). Purified protein was stored at −80° C. until used. Unless stated otherwise, the fluorescence measurements were performed at pH 7.8 with 50 mM potassium phosphate, 0.5M KCl, and 8.13 mM CHAPS. Sterol (cholesterol, epicholesterol, coprostanol, and epicoprostanol) was prepared as CHAPS/PC/sterol mixed micelles (with CHAPS at 8.13 mM, PC at 4 mM, and with varying concentrations of sterols as indicated) and stored at 20° C. in the dark until usage. The fatty acyl-CoAs were dissolved in 20 mM sodium acetate at pH 6.4 as a 2 mM stock and stored at −80° C. until used. Before the experiment started, all reagents were kept on ice in the dark. To begin the experiment, 50 μL of mixed micelles without or with sterols was added into a HELLMA microcuvette with 3 mm light path. Twenty-five microliters of ACAT1 protein (in 8.13 mM CHAPS and 0.5 M KCl) was then added and rapidly mixed. Fluorescence was monitored within 15 seconds of adding the enzyme. The sample compartment of the instrument was maintained at 20° C. The fluorescence emission spectrum was scanned in 2 minutes between 310 and 410 nm. The differences in fluorescence intensity at 10 intervals within 325-335 nm were averaged in order to calculate the ΔF value between the ligated protein vs that of the unligated protein.
Binding studies were subsequently conducted by monitoring the effect of increasing concentrations of oleoyl-CoA on the intrinsic fluorescence of HisACAT1/FLAG. […] However, the maximal change in the peak of the spectrum was much smaller (5% with respect to the unliganded protein). […] The data was analyzed for a simple bimolecular dissociation equilibrium using the PRISM program.
Binding experiments were subsequently performed by monitoring the effect of increasing concentrations of cholesterol, from 10 to 600 μM, on the intrinsic fluorescence of HisACAT1/FLAG. […] It was estimated that the cholesterol concentration that caused half-maximal spectral change was 35 μM. […] The changes in the intrinsic fluorescence of ACAT1 caused by cholesterol, epicholesterol, coprostanol, or epicoprostanol as the ligand were also compared.

The target in series [3] is T2, histidine-tagged recombinant human ACAT1 (Homo sapiens, UniProt P35610, M1L).
T2 construct: hACAT-1 cDNA (nucleotide residues 1397-3046, a total of 550 amino acids); made in house; partially purified on a nickel column
T2 sequence (P35610 1-550 M1L): T1 sequence (P35610 1-550 M1L)
The experiment in a line: Steroid (pregnenolone/DHEA/E2) esterification in mixed micelles, ACAT1 as enzyme source. In kind it is biochemical. Conditions: for ACAT1 substrate activity: 1 μM [3H]-steroid. The text has this: (§3) The method of the present invention was developed in experiments using a mixed micelle enzyme assay system. […] A candidate ACAT inhibitor is an allosteric inhibitor if it is shown in the method of the present invention to inhibit cholesterol-dependent pregnenolone esterification but not to inhibit the basal pregnenolone esterification when cholesterol is absent in the assay mixture. […] In the assay system of the present invention, the source of ACAT was histidine-tagged recombinant human ACAT1 or human ACAT2, stably expressed in Chinese hamster ovary (CHO) cells that lack endogenous ACAT activity. However, one of skill in the art could employ other suitable mammalian cell systems as needed. The enzyme preparations used in the present method were partially purified through the use of nickel column chromatography, as described previously (Liu et al. 2005. Biochem. J. 391:389-397), using cells that stably expressing histidine-tagged recombinant human ACAT1 or human ACAT2 as the enzyme source.
(§4) In developing the method of the present invention, a series of experiments was performed. Pregnenolone is one compound that contains the classical A, B, C, D steroid rings as well as a 3 beta-OH moiety. Based on its structure, pregnenolone may be an ACAT substrate. However, this possibility had not previously been tested experimentally. In the present invention, the activity of pregnenolone was tested by using radiolabeled pregnenolone ([^3H]-pregnenolone) in a mixed micelle enzyme assay mixture that contained the detergent taurocholate (or CHAPS), phosphatidylcholine, and oleyl-coenzyme A bound to bovine serum albumin (BSA). The enzyme used was histidine-tagged human ACAT1 or human ACAT2. The esterification of pregnenolone (i.e., formation of pregnenolone oleate) was monitored by performing lipid extraction to isolate [^3H]-pregnenolone oleate and [^3H]-pregnenolone. [^3H]-pregnenolone oleate was then separated from [^3H]-pregnenolone by using conventional thin-layer chromatography. Levels of [^3H]-pregnenolone oleate formed was measured using a scintillation counter. […] Thus, using ACAT1 as the enzyme source, the esterification of DHEA was examined (FIG. 1C).
A pregnenolone substrate saturation curve was then constructed, with or without addition of cholesterol to the assay mixture, using ACAT1 as the enzyme source (FIG. 2A). […] Then, a DHEA substrate saturation curve was constructed, with cholesterol present.
Further experiments were performed to examine the effect of adding various non-oxysterols, at a concentration of 0.32 mM, on pregnenolone esterification in vitro, with ACAT1 as the enzyme source.
(§5) To assay the enzyme, the pregnenolone/detergent/PC micelles and the cholesterol/detergent/PC micelles were prepared individually as follows: the radiolabeled pregnenolone/PC mixture or the cholesterol/PC mixture was prepared as described previously (Shi et al. 1989. Biochim. Biophys. Acta 982:187-195) and lyophilized to remove residual organic solvents. After lyophilization, the detergent sodium taurocholate (or other detergent such as CHAPS) in Buffer A was added to reach a final concentration of 10 mg/ml. The mixture was purged with nitrogen, followed by sonication until this mixture was clear. The pregnenolone/PC micelles were mixed with the cholesterol/PC micelles such that the cholesterol concentration is at 0 mM or at 0.32 mM, and the radioactive pregnenolone concentration is at 1 μM (specific activity 20 Ci/mmol).

Series [4] concerns the target T3, histidine-tagged recombinant human ACAT2 (Homo sapiens, UniProt O75908).
T3 construct: made in house; partially purified on a nickel column
T3 sequence (O75908 1-522): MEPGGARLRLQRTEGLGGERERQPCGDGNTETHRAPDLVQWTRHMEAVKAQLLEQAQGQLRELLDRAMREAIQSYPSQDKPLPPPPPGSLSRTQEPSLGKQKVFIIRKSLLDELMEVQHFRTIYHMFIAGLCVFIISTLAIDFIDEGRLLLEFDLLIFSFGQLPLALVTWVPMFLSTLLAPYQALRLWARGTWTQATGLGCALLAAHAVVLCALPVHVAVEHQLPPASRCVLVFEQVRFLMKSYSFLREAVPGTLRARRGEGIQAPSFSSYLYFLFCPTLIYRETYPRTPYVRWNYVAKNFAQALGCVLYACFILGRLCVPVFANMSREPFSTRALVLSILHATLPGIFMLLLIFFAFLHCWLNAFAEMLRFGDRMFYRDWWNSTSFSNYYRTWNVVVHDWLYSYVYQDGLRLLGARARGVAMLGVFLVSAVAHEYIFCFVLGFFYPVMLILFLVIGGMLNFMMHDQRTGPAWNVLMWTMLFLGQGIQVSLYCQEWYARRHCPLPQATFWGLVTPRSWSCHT
Kind of series: Pregnenolone esterification in mixed micelles, ACAT2 as enzyme source. In kind it is biochemical. Conditions: 1 μM [3H]-pregnenolone.
Excerpt: as §3, §4, §5

In series [5] the target is T4, ACAT1 (Homo sapiens, UniProt P35610, M1L).
T4 construct: hACAT-1 cDNA (nucleotide residues 1397-3046, a total of 550 amino acids); made in house; partially purified on a nickel column
T4 sequence (P35610 1-550 M1L): T1 sequence (P35610 1-550 M1L)
Kind of series: Cholesterol esterification in vitro ([3H]-oleoyl-CoA/BSA labeled substrate), cholesterol substrate saturation curve. In kind it is biochemical. Conditions: pregnenolone added at 5 μM.

Substrate in series [6]: CC(C)CCC[C@@H](C)[C@H]1CC[C@H]2[C@@H]3CC=C4C[C@@H](O)CC[C@]4(C)[C@H]3CC[C@]12C
Described as above. The class given is biochemical, human. Particulars: other: ACAT1.

Substrate in series [7]: CCCCCCCC/C=C\CCCCCCCC(=O)SCCNC(=O)CCNC(=O)[C@H](O)C(C)(C)COP(=O)(O)OP(=O)(O)OC[C@H]1O[C@@H](n2cnc3c(N)ncnc32)[C@H](O)[C@@H]1OP(=O)(O)O
The experiment in a line: Steady-state enzyme kinetics with fatty acyl-CoA as variable substrate, purified HisACAT1/FLAG. The class given is biochemical, human. Conditions: other: constant, saturating cholesterol in CHAPS/PC mixed micelles. The procedure:
as §1, §2

Substrate in series [8]: CCCCCCCCCCCCCCCCCC(=O)SCCNC(=O)CCNC(=O)[C@H](O)C(C)(C)COP(=O)(O)OP(=O)(O)OC[C@H]1O[C@@H](n2cnc3c(N)ncnc32)[C@H](O)[C@@H]1OP(=O)(O)O
The series is described as above. Conditions: other: constant, saturating cholesterol in CHAPS/PC mixed micelles. In kind it is biochemical, human. As to the method: as §1, §2

Where [9] appears, read: presence of excess cholesterol (0.32 mM).

Consider `CCCCCCCC/C=C\CCCCCCCC(=O)SCCNC(=O)CCNC(=O)[C@H](O)C(C)(C)COP(=O)(O)OP(=O)(O)OC[C@H]1O[C@@H](n2cnc3c(N)ncnc32)[C@H](O)[C@@H]1OP(=O)(O)O` [oleoyl-CoA], for which the “Vmax, fold higher than for stearoyl-CoA” value in series [1] was found to be 2.4 fold. Besides, the “maximal increase in fluorescence peak height with respect to unliganded ACAT1 protein” value in series [2] (excitation 295 nm, peak 330 nm) is listed as “approximately 32%”. Further, the Kd in series [2] (simple bimolecular dissociation equilibrium, PRISM, read-out: dissociation constant) was found to be 1900 nM.

Turning to `CC(=O)[C@H]1CC[C@H]2[C@@H]3CC=C4C[C@@H](O)CC[C@]4(C)[C@H]3CC[C@]12C` [pregnenolone], in series [3] (ACAT1, cholesterol present), the “estimated Km, fold lower than that of cholesterol” value is on record as 600 fold. The results for the ACAT1 substrate activity entry in series [3] (absence of cholesterol) and in series [3] (setting [9]) were “very poor substrate” and “much better substrate”, respectively. In addition, the Km (usually the substrate concentration at which the rate is half of its maximum) in series [3] (with cholesterol present in vitro (0.32 mM), read-out: apparent Km as ACAT1 substrate) was around 1.2 µM. Also, the “Km as ACAT1 substrate” value in series [3] (without cholesterol present in vitro) is reported as “too high to be measurable”. Besides, the ACAT2 substrate activity result in series [4] (absence of cholesterol) is on record as “very poor substrate”; in series [4] (setting [9]) it was “much better substrate”. Also, the “inhibition of cholesterol esterification” value in series [5] was 10-15%.

B1: ACAT1 (Homo sapiens; M1L) (protein)
chain: T1 sequence (P35610 1-550 M1L)
notes: hACAT-1 cDNA (nucleotide residues 1397-3046, a total of 550 amino acids); made in house; partially purified on a nickel column
Turning to B1, the Michaelis-Menten constant (Km) in series [6] is 300 µM.

B2: HisACAT1/FLAG (recombinant hACAT1) (Homo sapiens; M1L) (protein)
chain: T1 sequence (P35610 1-550 M1L)
notes: hACAT1 contains 550 amino acids; made in house
B2: the Km turned out to be 1.3 µM in series [7] and 6.4 µM in series [8].

The values above are taken from US8673587B2, “Methods for identifying allosteric and other novel acyl-coenzyme A:cholesterol acyltransferase inhibitors” (Trustees of Dartmouth College, priority 2010, dated 2014).
